Reference: patent publication US6818200B2, “Method of using deuterated calcium channel blockers” (priority 1994, dated 2004)

What was measured:
S. aureus = assay: Penicillin V dose-response study; assay type: cell-based
Procedure: A dose-response study for penicillin V using S. aureus was conducted (FIG. 30). […] These conditions used a higher inoculum (100 fold) than previous studies.
A experiment similar to that above was performed except that the dose range was larger.

[1] = system: normotensive Sprague-Dawley rats; assay: Nicardipines on blood pressure in normotensive Sprague-Dawley rats (Example VI); assay type: in vivo, rat; settings: for slope function of dose response: calculated by Litchfield-Wilcoxon method; for change in mean arterial pressure at equipotent doses: control 1×10^−9 moles, deuterated 3×10^−9 moles, p=NS; for ED16, reduction in mean arterial pressure / ED50, reduction in mean arterial pressure / ED84, reduction in mean arterial pressure: injected, anesthetized rats
Description: Effect of deuterated control […] on blood pressure in normotensive Sprague-Dawley rats.

[2] = system: Spontaneously hypertensive rats (SHR); assay: Blood pressure effect of i.v. nifedipines in anesthetized spontaneously hypertensive rats (Example II); assay type: in vivo, rat; settings: at the three lower concentrations, p=0.08 Wilcoxon rank-sum (FIG. 1)
Procedure: Spontaneously hypertensive rats (SHR) were anesthetized with pentobarbital (65 mg/kg, intraperitoneally) and a carotid artery and jugular vein cannulated. Blood pressure was continuously monitored via the carotid artery cannula. […] Aliquots of appropriate dilutions were then injected intravenously in the SHR and blood pressure effects monitored for at least two hours following injection. Doses used were 0.00001, 0.00002, 0.000025, and 0.00005 moles per rat in the control group and in the test group. All rats were within 25 grams of body weight of each other.

[3] = system: normotensive Sprague-Dawley rats; assay: Nifedipines on blood pressure in normotensive Sprague-Dawley rats (Example V); assay type: in vivo, rat; settings: for maximum change in mean arterial pressure at equipotent doses: 1 ml injected, control 2×10^−3 molar, p=NS; for maximum change in mean arterial pressure at equipotent doses / duration of action (hypotensive response): deuterated 1×10^−3 molar; for duration of action (hypotensive response): equipotent doses: control 2×10^−3 molar, p=0.02
Description: Effect of deuterated and control nifedipines on blood pressure in normotensive Sprague-Dawley rats.

[4] = system: T type calcium channels in NE 115 cells; assay: Use dependency of calcium channel inhibition, whole cell patch-clamp with repetitive pulses (Example IV)
Procedure: In the following set of examples, calcium channels were depolarized with repetitive pulses of current at the intervals indicated. Such studies were carried out using the whole cell version of the patch-clamp. The reduction of inward current as a function of the interval between pulses in the absence of any drug was taken as the control.

[5] = system: S. aureus clinical isolates; assay: Penicillin V on clinical isolates; assay type: cell-based; settings: methicillin sensitive isolates (FIGS. 34 and 35)
Procedure: The effect of control and deuterated penicillin V on S. aureus clinical isolates was determined (FIGS. 34 and 35). […] The modest differences may be related to the concentrations used and density of bacterial seeding on the plates.

Streptococcus pyogenes [6] = assay: Antibiotic tube dilution (NCCLS); assay type: cell-based; settings: tube dilution (FIG. 20 penicillin V, FIG. 26 methicillin)
Procedure: (§1) Antibiotic testing was carried out using disc diffusion and tube dilution methods following NCCLS (National Committee for Clinical Laboratory Standards) methodology with several strains of bacteria.
(§2) Antibiotic testing was carried using disc diffusion and tube dilution methods following NCCLS (National Committee for Clinical Laboratory Standards) methodology.

Staphylococcus aureus [7] = assay: Antibiotic tube dilution (NCCLS); assay type: cell-based; settings: tube dilution (FIG. 20 penicillin V, FIG. 26 methicillin)
Procedure: as §1, §2

[8] = system: Staphylococcus aureus (ATCC 25923) or Streptococcus faecalis (ATCC 29212); assay: Penicillin V zonal inhibition on Mueller-Hinton agar plates; assay type: cell-based; settings: disks with 0.1 ml of 1 mg/ml solution, 24 hours at 37° C. (FIG. 23)
Procedure: Penicillin V. or deuterated penicillin V disks were prepared by allowing 0.1 ml of a 1 mg/ml solution of the respective drugs to absorb into filter paper disks. After drying the disks were placed onto Mueller-Hinton agar plates seeded with either Staphylococcus aureus (ATCC 25923) or Streptococcus faecalis (ATCC 29212). The resulting plates were incubated for 24 hours at 37° C. and zones of inhibition around the disks were measured. Results are graphically depicted in FIG. 23.

Streptococcus pyogenes [9] = assay: Antibiotic disc diffusion (NCCLS); assay type: cell-based; settings: disc diffusion (FIGS. 21, 22 penicillin V; FIG. 27 methicillin)
Procedure: as §1, §2

Staphylococcus aureus [10] = assay: Antibiotic disc diffusion (NCCLS); assay type: cell-based; settings: disc diffusion (FIG. 19, 29 ceftazidime; FIGS. 21, 22 penicillin V; FIG. 27 methicillin)
Procedure: as §1, §2

Streptococcus faecalis [11] = assay: Antibiotic disc diffusion (NCCLS); assay type: cell-based; settings: disc diffusion (FIGS. 21, 22 penicillin V; FIG. 27 methicillin)
Procedure: as §1, §2

S. pyogenes = assay: Effect of solvent (water or D2O) on ceftazidime activity; assay type: cell-based; settings: dissolved in D2O (FIG. 33)
Procedure: The effect of solvent on ceftazidime activity was tested to confirm that dissolving ceftazidime in D2O could alter its efficacy. We therefore dissolved control and modified ceftazidime in water of D2O and tested it effect on S. pyogenes (FIG. 33). […] Thus, our findings underscore the unique importance of isotopes.

Streptococcus faecalis [12] = assay: Antibiotic tube dilution (NCCLS); assay type: cell-based; settings: tube dilution (FIG. 26 methicillin)
Procedure: as §1, §2

Question: `CC1(C)S[C@@H]2[C@H](NC(=O)COc3ccccc3)C(=O)N2[C@H]1C(=O)O` [control penicillin V, penicillin V, reference compound] was tested. Which bacteriocidal activity (S. aureus; higher doses, larger dose range (FIG. 31)) did it give?
Answer: ineffective

Question: `COC(=O)C1=C(C)NC(C)=C(C(=O)OCCN(C)Cc2ccccc2)C1c1cccc([N+](=O)[O-])c1` (stereo not drawn) [control nicardipine, nicardipine, reference compound] was tested. Which “slope function of dose response” value [1] did it give?
Answer: 416

Question: What about the “change in mean arterial pressure at equipotent doses” value [1] of the same compound?
Answer: −13.8 mmHg

Question: And the “ED16, reduction in mean arterial pressure” value [1]?
Answer: 6.11e-06 mmol

Question: What about the “ED50, reduction in mean arterial pressure” value [1] of the same compound?
Answer: 0.00254 mmol

Question: And the “ED84, reduction in mean arterial pressure” value [1]?
Answer: 1.06 mmol

Question: With `[2H]C([2H])([2H])C1=C(C(=O)OC)C(c2ccccc2[N+](=O)[O-])C(C(=O)OC)=C(C([2H])([2H])[2H])N1` [deuterated nifedipine] as the compound, how does the “hypotensive effect compared with regular nifedipine” value [2] read?
Answer: greater than that of regular nifedipine

Question: And the “maximum change in mean arterial pressure at equipotent doses” value [3]?
Answer: −40.3 mmHg

Question: What about the “potency on mean arterial pressure compared with control” value ([3]; all doses, six rats per dose, p<0.05 (FIG. 6)) of the same compound?
Answer: more potent than control nifedipine

Question: What about the “duration of effect compared with control” value ([3]; at each time period) of the same compound?
Answer: greater for deuterated nifedipine compared to control nifedipine

Question: What about the “duration of action (hypotensive response)” value [3] of the same compound?
Answer: 62.2 min

Question: And the “calcium current inhibition as a function of pulse frequency” value ([4]; 1 and 0.3 second intervals, 5 micromolar (FIG. 4))?
Answer: more effective than control nifedipine in blocking the calcium channels

Question: And the “decrease of inward current at increased stimulation frequency” value ([4]; 5 micromolar, FIG. 2 panel C)?
Answer: more effective than control nifedipine

Question: And the “use dependent calcium channel inhibition” value ([4]; all frequencies, 5 micromolar (FIG. 5))?
Answer: greater use dependent calcium channel inhibition

Question: What about the “inhibitory effect on inward calcium current” value ([4]; repetitive 1 second pulses, 5 micromolar, p<0.05 (FIG. 3)) of the same compound?
Answer: more effective at blocking calcium current than control current

Question: Which “potency, modified vs control drug” value [5] does the source give for `CC1(C)S[C@@H]2[C@H](NC(=O)COc3ccccc3)C(=O)N2[C@H]1C(=O)O` [deuterated penicillin V] here?
Answer: always more potent than the controls

Question: What about the “concentration necessary to inhibit growth, modified vs control drug” value (Streptococcus pyogenes [6]) of the same compound?
Answer: substantially less compared to control drug

Question: What about the “concentration necessary to inhibit growth, modified vs control drug” value (Staphylococcus aureus [7]) of the same compound?
Answer: substantially less compared to control drug

Question: What about the “potency relative to native penicillin V in zonal inhibition” value [8] of the same compound?
Answer: increase in potency

Question: And the “zones of inhibition, modified vs control drug” value (Streptococcus pyogenes [9])?
Answer: greater for modified (test) compared to control drug

Question: And the “zones of inhibition, modified vs control drug” value (Staphylococcus aureus [10])?
Answer: greater for modified (test) compared to control drug

Question: What about the “zones of inhibition, modified vs control drug” value (Streptococcus faecalis [11]) of the same compound?
Answer: greater for modified (test) compared to control drug

Question: And the bacteriocidal activity (S. aureus; high dose, higher inoculum (100 fold) (FIG. 30))?
Answer: began to show effect

Question: What about the bacteriocidal activity (S. aureus; higher doses, larger dose range (FIG. 31), listed as modified penicillin V) of the same compound?
Answer: effective at higher doses

Question: `CC(C)(O/N=C(\C(=O)N[C@@H]1C(=O)N2C(C(=O)[O-])=C(C[n+]3ccccc3)CS[C@H]12)c1csc(N)n1)C(=O)O` [control ceftazidime, ceftazidime] was tested. Which “activity when dissolved in D2O” value (S. pyogenes) did it give?
Answer: enhance activity

Question: What does the source list for `[2H]c1c([2H])c(OC)c(C(=O)N([2H])C2C(=O)N3C2SC(C)(C)C3C(=O)[O-])c(OC)c1[2H].[Na+]` (stereo not drawn) [modified methicillin]?
Answer: concentration necessary to inhibit growth, modified vs control drug (Streptococcus pyogenes [6]): less for control compared to modified drug; concentration necessary to inhibit growth, modified vs control drug (Staphylococcus aureus [7]): less for control compared to modified drug; concentration necessary to inhibit growth, modified vs control drug (Streptococcus faecalis [12]): less for control compared to modified drug; zones of inhibition, modified vs control drug (Streptococcus pyogenes [9]): less for modified compared to control drug; zones of inhibition, modified vs control drug (Staphylococcus aureus [10]): less for modified compared to control drug; zones of inhibition, modified vs control drug (Streptococcus faecalis [11]): less for modified compared to control drug

Question: For `[2H]C([2H])([2H])C1=C(C(=O)OC)C(c2cccc([N+](=O)[O-])c2)C(C(=O)OCCN(C)Cc2ccccc2)=C(C([2H])([2H])[2H])N1` (stereo not drawn) [deuterated nicardipine], which “duration of effect compared with control” value ([1]; at most time periods (FIG. 10)) is on record?
Answer: greater for deuterated nicardipine compared to control nicardipine

Question: And the “slope function of dose response” value [1]?
Answer: 46

Question: And the “change in mean arterial pressure at equipotent doses” value [1]?
Answer: −13.8 mmHg

Question: What about the “ED16, reduction in mean arterial pressure” value [1] of the same compound?
Answer: 4.62e-05 mmol

Question: And the “ED50, reduction in mean arterial pressure” value [1]?
Answer: 0.00211 mmol

Question: And the “ED84, reduction in mean arterial pressure” value [1]?
Answer: 0.09 mmol

Question: Which “maximum change in mean arterial pressure at equipotent doses” value [3] does the source give for `COC(=O)C1=C(C)NC(C)=C(C(=O)OC)C1c1ccccc1[N+](=O)[O-]` [nifedipine, reference compound] here?
Answer: −45.8 mmHg

Question: And the “duration of action (hypotensive response)” value [3]?
Answer: 46.5 min
